Measured values: US12624004B2 (Fudan University, priority 2019, dated 2026)
Where two headings read alike, the source gives them in different places.

Molecular target: T1, δ opioid receptor (Homo sapiens, UniProt P41143)
T1 construct: expressed in transfected cells; host or cells: CHO cells (membranes)
Assay: Competition binding assay on membranes of CHO cells expressing δ opioid receptor, [3H]-labeled ligand
Procedure, shortened: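 CHO membranes (20–30 μg protein) incubated with [3H]-labeled ligand at 1–2 nM and test compounds, 30 min at 30° C; nonspecific binding with 1 μM corresponding ligand. Filtered on GF/C, washed with 50 mM Tris-HCl pH 7.4, scintillation-counted. IC50 converted to Ki by Ki=IC50/(1+[L]/Kd).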

T1 sequence (P41143 whole entry): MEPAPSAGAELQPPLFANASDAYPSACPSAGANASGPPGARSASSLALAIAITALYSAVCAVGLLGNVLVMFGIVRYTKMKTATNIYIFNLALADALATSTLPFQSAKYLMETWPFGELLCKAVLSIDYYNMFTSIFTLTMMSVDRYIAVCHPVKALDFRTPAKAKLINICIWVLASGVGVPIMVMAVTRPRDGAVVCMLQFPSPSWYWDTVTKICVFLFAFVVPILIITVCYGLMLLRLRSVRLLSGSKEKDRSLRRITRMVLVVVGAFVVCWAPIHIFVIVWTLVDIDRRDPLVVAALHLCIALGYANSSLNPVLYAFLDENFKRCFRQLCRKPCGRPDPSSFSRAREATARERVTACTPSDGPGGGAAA

COc1cccc(C2(O)CCCCC2CN(C)C)c1 (centres unmarked) [Tramadol, reference compound]
0%: inhibition at 10 µM (0.5 h, Table 1-1, 10 μM concentration of compound, read-out: δOR Binding rate (%)) | inhibition at 1 µM (0.5 h, Table 2-1, 1 μM concentration of compound, read-out: δOR Binding rate (%)) | inhibition at 1 µM (0.5 h, Table 5-1, 1 μM concentration of compound, read-out: δOR Combination rate (%)) | δOR Binding rate (%) (Table 3-1, 1 μM concentration of compounds) | δOR Binding rate (%) (Table 4-1, 1 μM concentration of compound)
